Measurements reported in patent US10385022B2, “3-amino-pyridines as GPBAR1 agonists” (HOFFMANN-LA ROCHE INC., priority 2011, dated 2019).

The molecules below were run against human GPBAR1 receptor (Homo sapiens (Human), UniProt Q8TDU6) (assay: functional cAMP assay in CHO-dhfr(minus) cells expressing human GPBAR1 receptors). Conditions: CHO-dhfr(minus) cells expressing human GPBAR1, 30 min at 30° C.
Type: cell-based
Experimental: The final clone was verified by DNA sequence analysis. The plasmid was transfected into CHO cells deficient in dihydrofolate reductase activity (CHO-dhfr-) using Lipofectamine plus (Invitrogen). Clones were isolated in limited dilution conditions and identified by activities in the cAMP assay using lithocholic acid as agonist.
EC50 values were determined using Activity Base analysis (ID Business Solution, Limited). […] Specificity for GPBAR1 was tested in non-transfected CHO cells in the same assay as above.

human GPBAR1 receptor, sequence (Q8TDU6 whole entry): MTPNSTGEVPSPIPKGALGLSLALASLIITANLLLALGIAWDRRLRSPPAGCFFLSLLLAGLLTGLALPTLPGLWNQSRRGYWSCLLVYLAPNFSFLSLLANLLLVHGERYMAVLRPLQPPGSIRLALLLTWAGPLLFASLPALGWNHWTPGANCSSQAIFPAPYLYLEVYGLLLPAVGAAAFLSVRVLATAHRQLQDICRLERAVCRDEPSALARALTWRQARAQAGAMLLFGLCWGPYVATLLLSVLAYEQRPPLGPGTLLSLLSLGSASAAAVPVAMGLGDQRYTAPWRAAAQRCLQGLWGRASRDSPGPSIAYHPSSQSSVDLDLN

Row | Compound | EC50
1 | COc1c(F)cc(F)cc1-c1ccncc1N(C)C(=O)c1cc(C(F)(F)F)cc(C(F)(F)F)c1 [Example 59, N-[4-(3,5-Difluoro-2-methoxy-phenyl)-pyridin-3-yl]-N-methyl-3,5-bis-trifluoromethyl-benzamide] | 190 nM
2 | Cc1ccccc1-c1ccncc1N(C)C(=O)c1cc([N+](=O)[O-])cc(C(F)(F)F)c1 [Example 184, N-Methyl-3-nitro-N-(4-o-tolylpyridin-3-yl)-5-(trifluoromethyl)benzamide] | 15 nM
3 | CN(C(=O)c1cc(C(F)(F)F)cc(C(F)(F)F)c1)c1cnccc1-c1ccnc(Cl)c1F [Example 56, N-(2′-Chloro-3′-fluoro-[4,4′]bipyridinyl-3-yl)-N-methyl-3,5-bis-trifluoromethyl-benzamide] | 430 nM
4 | CN(C(=O)c1cc(C(C)(C)O)cc(C(F)(F)F)c1)c1cnccc1-c1ccccc1Cl [Example 77, N-[4-(2-Chloro-phenyl)-pyridin-3-yl]-3-(1-hydroxy-1-methyl-ethyl)-N-methyl-5-trifluoromethyl-benzamide] | 715 nM
5 | Cc1cc(Cl)cc(C(=O)N(C)c2cnccc2-c2ccccc2C)n1 [Example 122, 4-Chloro-6-methyl-pyridine-2-carboxylic acid methyl-(4-o-tolyl-pyridin-3-yl)-amide] | 2430 nM
6 | CN(C(=O)c1cc(C(F)(F)F)cc(S(C)(=O)=O)c1)c1cnccc1-c1cccnc1OC1CN(C(=O)OC(C)(C)C)C1 [Example 320, 3-{3′-[(3-Methanesulfonyl-5-trifluoromethyl-benzoyl)-methyl-amino]-[3,4′]bipyridinyl-2-yloxy}-azetidine-1-carboxylic acid tert-butyl ester] | 2720 nM
7 | COc1cc(F)ccc1-c1ccncc1N(C)C(=O)c1cc(C2COC2)cc(C(F)(F)F)c1 [Example 235, N-[4-(4-Fluoro-2-methoxy-phenyl)-pyridin-3-yl]-N-methyl-3-oxetan-3-yl-5-trifluoromethyl-benzamide] | 85 nM
8 | COc1cc(F)ccc1-c1ccncc1N(C)C(=O)c1cc(SC2CN(C(=O)OC(C)(C)C)C2)cc(C(F)(F)F)c1 [Example 268, 3-(3-{[4-(4-Fluoro-2-methoxy-phenyl)-pyridin-3-yl]-methyl-carbamoyl}-5-trifluoromethyl-phenylsulfanyl)-azetidine-1-carboxylic acid tert-butyl ester] | 768 nM
9 | CC(C)Oc1ccccc1-c1ccncc1N(C)C(=O)c1cc(C(F)(F)F)cc(C(F)(F)F)c1 [Example 35, N-[4-(2-Isopropoxy-phenyl)-pyridin-3-yl]-N-methyl-3,5-bis-trifluoromethyl-benzamide] | 163 nM
10 | COc1cc(F)ccc1-c1ccncc1N(C)C(=O)c1cc(C(F)(F)F)cc(S(=O)(=O)N2CCC2)c1 [Example 249, 3-(Azetidine-1-sulfonyl)-N-[4-(4-fluoro-2-methoxy-phenyl)-pyridin-3-yl]-N-methyl-5-trifluoromethyl-benzamide] | 19 nM
11 | CN(C(=O)c1cc(C(F)(F)F)cc(C(F)(F)F)c1)c1cnccc1-c1cccc(F)c1Cl [Example 65, N-[4-(2-Chloro-3-fluoro-phenyl)-pyridin-3-yl]-N-methyl-3,5-bis-trifluoromethyl-benzamide] | 102 nM
12 | CS(=O)(=O)c1cc(C(=O)N(CC#N)c2cnccc2-c2ccccc2Cl)cc(C(F)(F)F)c1 [Example 286, N-[4-(2-Chloro-phenyl)-pyridin-3-yl]-N-cyanomethyl-3-methanesulfonyl-5-trifluoromethyl-benzamide] | 379 nM
13 | CN(C(=O)c1cc(C(F)(F)F)cc(C(F)(F)F)c1)c1cnccc1-c1ccccc1N [Example 222, N-[4-(2-Amino-phenyl)-pyridin-3-yl]-N-methyl-3,5-bis-trifluoromethyl-benzamide] | 183 nM
14 | Cc1ccccc1-c1ccncc1N(C)C(=O)c1cc(C(F)(F)F)nc(C(F)(F)F)c1 [Example 131, N-Methyl-N-(4-o-tolyl-pyridin-3-yl)-2,6-bis-trifluoromethyl-isonicotinamide] | 19 nM
15 | COc1cc(F)ccc1-c1ccncc1N(Cc1ncc(C)o1)C(=O)c1cc(C(F)(F)F)cc(S(C)(=O)=O)c1 [Example 283, N-[4-(4-Fluoro-2-methoxy-phenyl)-pyridin-3-yl]-3-methanesulfonyl-N-(5-methyl-oxazol-2-ylmethyl)-5-trifluoromethyl-benzamide] | 2200 nM
16 | COCCN(C(=O)c1cc(C(F)(F)F)cc(C(F)(F)F)c1)c1cnccc1-c1ccccc1Cl [Example 89, N-[4-(2-Chloro-phenyl)-pyridin-3-yl]-N-(2-methoxy-ethyl)-3,5-bis-trifluoromethyl-benzamide] | 8 nM
17 | CN(C(=O)c1cc(C(F)(F)F)cc(C(F)(F)F)c1)c1cnc(Cl)cc1-c1ncccc1Cl [Example 73, N-(3,6′-Dichloro-[2,4′]bipyridinyl-3′-yl)-N-methyl-3,5-bis-trifluoromethyl-benzamide] | 1830 nM
18 | COc1cc(F)ccc1-c1ccncc1N(CC(F)(F)F)C(=O)c1cc(C(F)(F)F)nc(C(F)(F)F)c1 [Example 147, N-[4-(4-Fluoro-2-methoxy-phenyl)-pyridin-3-yl]-N-(2,2,2-trifluoro-ethyl)-2,6-bis-trifluoromethyl-isonicotinamide] | 18 nM
19 | COc1cc(F)c(F)cc1-c1ccncc1N(CCS(C)(=O)=O)C(=O)c1cc(C(F)(F)F)nc(C(F)(F)F)c1 [Example 158, N-[4-(4,5-Difluoro-2-methoxy-phenyl)-pyridin-3-yl]-N-(2-methanesulfonyl-ethyl)-2,6-bis-trifluoromethyl-isonicotinamide] | 210 nM
20 | CN(C(=O)c1cc(C(F)(F)F)cc(C(F)(F)F)c1)c1cnccc1-c1ccc(F)cc1OCc1ccccc1 [Example 43, N-[4-(2-Benzyloxy-4-fluoro-phenyl)-pyridin-3-yl]-N-methyl-3,5-bis-trifluoromethyl-benzamide] | 2050 nM
21 | Cc1ccccc1-c1ccncc1N(C)C(=O)c1cc(C(F)(F)F)cc(S(=O)(=O)N(C)C)c1 [Example 128, 3-Dimethylsulfamoyl-N-methyl-N-(4-o-tolyl-pyridin-3-yl)-5-trifluoromethyl-benzamide] | 29 nM
22 | COc1cc(F)c(F)cc1-c1ccncc1N(CC(F)F)C(=O)c1cc(C(F)(F)F)nc(C(F)(F)F)c1 [Example 154, N-(2,2-Difluoro-ethyl)-N-[4-(4,5-difluoro-2-methoxy-phenyl)-pyridin-3-yl]-2,6-bis-trifluoromethyl-isonicotinamide] | 39 nM
23 | CN(C(=O)c1cc(C(F)(F)F)cc(C(F)(F)F)c1)c1cnccc1-c1ccc(F)cc1O [Example 48, N-[4-(4-Fluoro-2-hydroxy-phenyl)-pyridin-3-yl]-N-methyl-3,5-bis-trifluoromethyl-benzamide] | 307 nM
24 | Cc1cc(F)ccc1-c1ccncc1N(C)C(=O)c1cc(Cl)cc(Cl)c1 [Example 24, 3,5-Dichloro-N-[4-(4-fluoro-2-methyl-phenyl)-pyridin-3-yl]-N-methyl-benzamide] | 146 nM
25 | CN(C(=O)c1cc(C(F)(F)F)cc(S(C)(=O)=O)c1)c1cnccc1-c1ccccc1Cl [Example 278, N-[4-(2-Chloro-phenyl)-pyridin-3-yl]-3-methanesulfonyl-N-methyl-5-trifluoromethyl-benzamide] | 107 nM
